In one assay the target is sGC α1/β1 heterodimer (Homo sapiens (Human), UniProt Q02108+Q02153). Kind of assay: Cell-based sGC functional assay (CASA assay), cGMP by HTRF. The settings on record: CHO-K1/sGC cells; for EC50: inflection point of cGMP production, 4P fit, read-out: IP; for Emax: CHO-K1, cGMP production as percentage of maximum of compound A (set to 100%), read-out: % Activation. From the text:
Cell-Based sGC Functional Assay (Cyclic GMP Assay for sGC Activator: CASA Assay)
Soluble guanylate cyclase (sGC) is a heme-containing enzyme that converts GTP to secondary messenger cGMP. Increases in cGMP levels affect several physiological processes including vasorelaxation through multiple downstream pathways. […] Heme-dependent activators (HDAs) preferentially target sGC containing a ferrous heme group. To determine the effect of sGC activators on enzyme activity, the CASA assay was developed to monitor the generation of cGMP in a cell line that stably expresses the heterodimeric sGC protein.
A CHO-K1 cell line stably expressing the sGC α1/β1 heterodimer was generated using a standard transfection protocol. The cDNA's encoding human sGC α1 and β1 were cloned in pIRES hyg and pIRES neo respectively using standard molecular biology techniques. The plasmids pIRES hyg and pIRES neo plasmids were obtained from Clontech. CHO-K1 cells were transfected with plasmids pIREShyg-hsGCα1 and pIRESneo-hsGCβ1 simultaneously using FUGENE reagent. Clones that stably express both subunits were selected with hygromycin and neomycin for ˜2 weeks. The clone chosen for the assay was designated CHO-K1/sGC. CHO-K1/sGC cells were maintained in F-K12 medium containing 10% heat-inactivated Fetal Bovine Serum (FBS), 100 μg/mL penicillin/streptomycin, 0.5 mg/mL hygromycin and 0.25 mg/mL G418. The cells were then cryopreserved in liquid nitrogen. On the day of the assay, the cells were thawed and resuspended in EBSS Assay Buffer (Sigma, E3024) supplemented with 5 mM MgCl2, 10 mM HEPES (4-(2-hydroxyethyl)piperazine-1-ethanesulfonic acid) and 0.05% BSA (bovine serum albumin) and cell density was then adjusted to 2.25×10^5/mL with EAB. IBMX (3-isobutyl-1-methylxanthin, 0.5 mM) was added to inhibit degradation of cGMP. Compounds were diluted from DMSO stock solutions and added to the assay at a final DMSO concentration of 2.5%. Cells were pre-incubated in the presence and absence of 1 μM of Diethylenetriamine/nitric oxide adduct (DETA-NO; Sigma, 17018) for 30 min at 25° C. Compounds were subsequently added and incubated for 1 hr at 37° C. At the end of the incubation period, the reaction was terminated and the cells were lysed with the detection reagents from Cisbio Kits. The level of intracellular cGMP was determined using an HTRF-based assay kit (CisBio, 62GM2PEC), which detects the displacement of a fluorescence labeled cGMP from its specific antibody. The cGMP produced by test compounds was directly compared to the maximum cGMP production (this value was set to equal 100% activation) of the published sGC compound A (Example 1 in WO 2010/065275, published Jun. 10, 2010).
The test compounds' activities were then expressed as a percentage of compound A, the standard in every experiment. This percent activation was calculated either in the presence or absence of DETA-NO which was then plotted. Inflection points (IP) and maximum fold induction was derived using Abase analysis software for 4P fit.
For orientation: In TR-FRET formats the signal depends on donor and acceptor labels being close together.

Assay [1] concerns the target human recombinant sGC enzyme (Homo sapiens (Human), UniProt Q02108+Q02153). Kind of assay: SEC competition binding assay with [3H] Compound B radioligand. The note with it: displacement of 1.6 nM [3H] Compound B, 24 h at 37° C. Here is the method:
The binding potencies of sGC compounds to the human recombinant sGC enzyme were determined in a Size Exclusion Chromatography (SEC) competition binding assay using [^3H] Compound B as the radioligand. [^3H] Compound B was prepared using a standardardized tritium exchange procedure. The parent (non-labeled) molecule was first iodinated then a Pd-catalyzed iodine to tritium exchange provided the labeled compound.
Method: The binding buffer was composed of 50 mM triethanolamine pH 7.4, 3 mM MgCl2, 0.025% BSA, 2 mM dithiothreitol (DTT), 300 μM DETA/NO and 400 μM GTP. Assays were conducted in 96-well plates in a total volume of 200 μL. Recombinant human sGC protein (40 ng) was incubated with 1.6 nM [^3H] Compound B for 24 h at 37° C. in the presence and absence of various concentrations of sGC testing compounds delivered as DMSO solutions to give a total of 1% organic solvent content. Non-specific binding was defined by competition with 1 μM of Compound B. After the incubation period, the binding mixtures were loaded onto the gel-filtration plate (ThermoFischer Cat. No. 89808) pre-equilibrated with binding buffer and spun at 1000×g for 3 min at 4° C. on a Bench top centrifuge. The collected eluates in White Frame Clear Well Isoplates (Perkin Elmer Cat #6005040) received 100 μl of UltimaGold scintillation cocktail. The sealed plates were shaken vigorously and span, and counted after 6 hs with a Wallac Microbeta TriLux 1450 LSC & Luminescence Counter (Perkin Elmer). Data from competition experiments were analyzed to determine Ki values using one site—fit Ki equation.

The source of these data is patent publication US10780092B2, “Fused pyrazine derivatives useful as soluble guanylate cyclase stimulators” (Merck Sharp & Dohme Corp., priority 2016, dated 2020).

For orientation: Ki means a measure of affinity in units of concentration, obtained from inhibition or displacement.

In the case of `CC1CCC(Cc2nc(-c3nc(N)c4c(n3)NC(=O)C4(C)c3ccc(Cl)c(O)c3)cn3ccnc23)CC1` (stereo not drawn) [Example 108-AB, 4-Amino-5-(4-chloro-3-hydroxyphenyl)-5-methyl-2-{8-[(4-methylcyclohexyl)methyl]imidazo[1,2-a]pyrazin-6-yl}-5,7-dihydro-6H-pyrrolo[2,3-d]pyrimidin-6-one], the “% Activation” value on sGC α1/β1 heterodimer (cGMP production as percentage of maximum of compound A (set to 100%)) was 127%. The EC50 on sGC α1/β1 heterodimer was 210 nM. Also, the Ki in assay [1] amounted to 0.524 nM.

For the molecule `CC1(c2cc(O)c(Cl)cn2)C(=O)Nc2nc(-c3cn4ncnc4c(Cc4ccccc4F)n3)nc(N)c21` (stereo not drawn) [Example 148-B, 4-amino-5-(5-chloro-4-hydroxypyridin-2-yl)-2-{8-(2-fluorobenzyl)-[1,2,4]triazolo[1,5-a]-pyrazin-6-yl}-5-methyl-5,7-dihydro-6H-pyrrolo-[2,3-c]pyrimidin-6-one], at sGC α1/β1 heterodimer, the Emax turned out to be 105% and the EC50 was determined as 242 nM. In addition, the Ki in assay [1] turned out to be 0.261 nM.

As for `CC1(c2ncc(Cl)c(O)c2Cl)C(=O)Nc2nc(-c3cn4ccnc4c(Cc4cc(F)cc(F)c4)n3)nc(N)c21` (stereo not drawn) [Example 73-A, 4-Amino-5-(3,5-dichloro-4-hydroxypyridin-2-yl)-2-{8-[(3,5-difluorophenyl)methyl]imidazo[1,2-a]pyrazin-6-yl}-5-methyl-5,7-dihydro-6H-pyrrolo[2,3-d]pyrimidin-6-one], on sGC α1/β1 heterodimer, the Emax amounted to 81% and the EC50 was determined as 694 nM. Moreover, the Ki in assay [1] is 6.01 nM.

For the molecule `CCCCc1nc(-c2nc(N)c3c(n2)NC(=O)C3(C)c2cc(O)c(Cl)c(F)c2)cn2ncnc12` (stereo not drawn) [Example 42-B, 4-Amino-2-(8-butyl-[1,2,4]triazolo[1,5-a]pyrazin-6-yl)-5-(4-chloro-3-fluoro-5-hydroxyphenyl)-5-methyl-5,7-dihydro-6H-pyrrolo[2,3-d]pyrimidin-6-one], at sGC α1/β1 heterodimer, the Emax came out at 170% and the EC50 was 146 nM. Also, the Ki in assay [1] is 0.496 nM.

As to `CCCCc1nc(-c2nc(N)c3c(n2)NC(=O)C3(C)c2cc(O)c(Cl)cn2)cn2ccnc12` (stereo not drawn) [Example 72-B, 4-Amino-2-(8-butylimidazo[1,2-a]pyrazin-6-yl)-5-(5-chloro-4-hydroxypyridin-2-yl)-5-methyl-5,7-dihydro-6H-pyrrolo[2,3-d]pyrimidin-6-one], at sGC α1/β1 heterodimer, the Emax amounted to 84% and the EC50 was 3460 nM. Besides, the Ki in assay [1] is 4.62 nM.

As for `CC1(c2cccc(O)c2)C(=O)Nc2nc(-c3cn4ccnc4c(Cc4ccc(Cl)cc4)n3)nc(N)c21` (stereo not drawn) [Example 56-B, 4-Amino-2-{8-[(4-chlorophenyl)methyl]imidazo[1,2-a]pyrazin-6-yl}-5-(3-hydroxyphenyl)-5-methyl-5,7-dihydro-6H-pyrrolo[2,3-d]pyrimidin-6-one], on sGC α1/β1 heterodimer, the Emax came to 101% and the EC50 amounted to 627 nM. Moreover, in assay [1], the Ki was 1.24 nM.

Turning to `CC1CCC(Cc2nc(-c3nc(N)c4c(n3)NC(=O)C4(C)c3ccc(Cl)c(O)c3)cn3ccnc23)CC1` (stereo not drawn) [Example 108-AA, 4-Amino-5-(4-chloro-3-hydroxyphenyl)-5-methyl-2-{8-[(4-methylcyclo-hexyl)methyl]imidazo-[1,2-a]pyrazin-6-yl}-5,7-dihydro-6H-pyrrolo-[2,3-d]pyrimidin-6-one], at sGC α1/β1 heterodimer, the Emax was 118% and the EC50 stood at 198 nM. Also, in assay [1], the Ki worked out at 0.924 nM.

Regarding `CC1(c2ccc(C(F)(F)F)c(O)c2)C(=O)Nc2nc(-c3cn4ccnc4c(Cc4cccc(F)c4)n3)nc(N)c21` (stereo not drawn) [Example 17-B, 4-Amino-2-{8-[(3-fluorophenyl)methyl]imidazo[1,2-a]pyrazin-6-yl}-5-(3-hydroxy-4-(trifluoromethyl)phenyl)-5-methyl-5,7-dihydro-6H-pyrrolo[2,3-d]pyrimidin-6-one], on sGC α1/β1 heterodimer, the Emax is 117% and the EC50 came out at 482 nM. Besides, in assay [1], the Ki is 0.163 nM.

Turning to `CC1(c2ccc(Cl)c(O)c2)C(=O)Nc2nc(-c3cn4ccnc4c(Cc4ccc(Cl)cc4)n3)nc(N)c21` (stereo not drawn) [Example 44-A, 4-Amino-5-(4-chloro-3-hydroxyphenyl)-2-{8-[(4-chlorophenyl)methyl]imidazo[1,2-a]pyrazin-6-yl}-5-methyl-5,7-dihydro-6H-pyrrolo[2,3-d]pyrimidin-6-one], on sGC α1/β1 heterodimer, the Emax was 100% and the EC50 is 460 nM. Besides, in assay [1], the Ki came out at 0.507 nM.

As for `CC1(c2cccc(O)c2)C(=O)Nc2nc(-c3cn4ccnc4c(CCC4CCCCC4)n3)nc(N)c21` (stereo not drawn) [Example 83-B, 4-Amino-2-(8-(2-cyclohexylethyl)imidazo[1,2-a]pyrazin-6-yl)-5-(3-hydroxyphenyl)-5-methyl-5,7-dihydro-6H-pyrrolo[2,3-d]pyrimidin-6-one], at sGC α1/β1 heterodimer, the Emax was 109% and the EC50 turned out to be 222 nM. For the same molecule, the Ki in assay [1] is 5.12 nM.

On to `CCCCc1nc(-c2nc(N)c3c(n2)NC(=O)C3(C)c2ccc(Cl)c(O)c2)cn2ncnc12` (stereo not drawn) [Example 50-A, 4-Amino-2-(8-butyl-[1,2,4]triazolo[1,5-a]pyrazin-6-yl)-5-(4-chloro-3-hydroxyphenyl)-5-methyl-5,7-dihydro-6H-pyrrolo[2,3-d]pyrimidin-6-one], for which, on sGC α1/β1 heterodimer, the Emax amounted to 175% and the EC50 was found to be 70 nM. In addition, in assay [1], the Ki came out at 0.775 nM.

With `CC1(c2cc(O)c(Cl)c(F)c2)C(=O)Nc2nc(-c3cn4ccnc4c(Cc4cccc(F)c4)n3)nc(N)c21` (stereo not drawn) [Example 5-B, 4-Amino-5-(4-chloro-3-fluoro-5-hydroxyphenyl)-2-{8-[(3-fluorophenyl)methyl]imidazo[1,2-a]pyrazin-6-yl}-5-methyl-5,7-dihydro-6H-pyrrolo[2,3-d]pyrimidin-6-one], at sGC α1/β1 heterodimer, the Emax amounted to 113% and the EC50 amounted to 188 nM. The Ki in assay [1] turned out to be 0.091 nM.

As for `CC1(c2ccc(Cl)c(O)c2)C(=O)Nc2nc(-c3cn4ncnc4c(CCCC(F)(F)F)n3)nc(N)c21` (stereo not drawn) [Example 87-A, 4-Amino-5-(4-chloro-3-hydroxyphenyl)-5-methyl-2-(8-(4,4,4-trifluorobutyl)-[1,2,4]triazolo[1,5-a]pyrazin-6-yl)-5,7-dihydro-6H-pyrrolo[2,3-d]pyrimidin-6-one], at sGC α1/β1 heterodimer, the Emax came to 111% and the EC50 was 935 nM. In addition, the Ki in assay [1] turned out to be 2.8 nM.

Take `CC1(c2cc(O)c(Cl)cn2)C(=O)Nc2nc(-c3cn4ccnc4c(CC4CCCC4)n3)nc(N)c21` (stereo not drawn) [Example 141-B, 4-amino-5-(5-chloro-4-hydroxypyridin-2-yl)-2-(8-(cyclopentylmethyl)-imidazo[1,2-a]pyrazin-6-yl)-5-methyl-5,7-dihydro-6H-pyrrolo-[2,3-d]pyrimidin-6-one]: at sGC α1/β1 heterodimer, the Emax turned out to be 99% and the EC50 was 1350 nM. Further, in assay [1], the Ki stood at 0.706 nM.
